# Measurements published in patent US7410983B2 (Fournier Laboratories Ireland Limited, priority 2000, dated 2008).
# Columns and labels:
# [1] = tested on: patients with type 2 diabetes; assay: Venous occlusion plethysmography: forearm blood flow response to intra-brachial sodium nitroprusside; type: in vivo, human; conditions: 12 weeks
# Procedure: (§1) Male or female patients aged less than 70 years and without severe obesity (Body Mass Index below 35 kg/m^2) were included after a 6 week run-in period if they had Haemoglobin A1c below 9%, total cholesterol below 6.5 mmol/l and either triglyceride above 1.8 mmol/l or HDL cholesterol below 1 mmol/l. The two therapeutic agents alone or in combination were given each as 200 mg once daily. Capsules identical in appearance to each agent but containing placebo were given to maintain the double-blind nature of the study.
# (§2) Evaluations of vascular function were carried out by bilateral venous occlusion plethysmography at weeks 0 and 12. […]
# (§3) Plethysmography studies were performed during a 5 minute infusion of each agent, diluted in saline and infused at a rate of 1 mL/min into the brachial artery of the non-dominant arm via a thin plastic cannula Each infusion of vasoactive agents was preceded by a period of saline infusion. Bilateral forearm blood flow was measured simultaneously at 15 second intervals for the final two minutes of each 5 minute infusion period employing mercury-in-silastic strain gauges. […] Results were expressed as the area under the curve (AUC) of the percent increase in forearm blood flow ratio (infused arm versus control arm) to account for any systemic effect of these vasoactive drugs. […]
# [2] = tested on: patients with type 2 diabetes; assay: Lipids, diabetes control and blood pressure in the randomized clinical trial; type: in vivo, human; conditions: 12 weeks, 200 mg once daily
# Procedure: as §1
# [3] = tested on: patient; conditions: for the patient; cited from earlier work
# [4] = tested on: patients with type 2 diabetes; assay: Venous occlusion plethysmography: forearm blood flow response to intra-brachial acetylcholine; type: in vivo, human; conditions: 12 weeks; for mean change on treatment (Week 12-Week 0) in acetylcholine AUC percent increase in forearm blood flow ratio: single treatment group, 200 mg once daily each agent, ACh 7.5, 15 and 30 μg/min, aspirin pretreatment
# Procedure: Evaluations of vascular function were carried out by bilateral venous occlusion plethysmography at weeks 0 and 12. These consisted of serial measurements of forearm blood flow before and after intra-brachial artery infusion of acetylcholine (ACh 7.5, 15 and 30 μg/min), sodium nitroprusside (SNP 1.5, 3 and 10 μg/min) and N^G-monomethyl-L-arginine (L-NMMA 4 μmol/l). […] Pretreatment with acetylsalicylic acid (aspirin) (650 mg daily taken orally) was given for one week to block prostacyclin and thromboxane generation.
# Plethysmography studies were performed during a 5 minute infusion of each agent, diluted in saline and infused at a rate of 1 mL/min into the brachial artery of the non-dominant arm via a thin plastic cannula Each infusion of vasoactive agents was preceded by a period of saline infusion. Bilateral forearm blood flow was measured simultaneously at 15 second intervals for the final two minutes of each 5 minute infusion period employing mercury-in-silastic strain gauges. During measurements hands were excluded from the circulation by inflation of wrist cuffs to 200 mmHg and venous occlusion was obtained by cyclical inflation of upper arm cuffs to 40 mmHg. Results were expressed as the area under the curve (AUC) of the percent increase in forearm blood flow ratio (infused arm versus control arm) to account for any systemic effect of these vasoactive drugs. The AUC provided integration over time of the dose response to the agent used. AUC for percent change in blood flow to ACh was a priori described as the primary efficacy criterion in this trial.
# Statistical analyses were performed using 2 by 2 analysis of variance using SPSS package
# [5] = tested on: patients with type 2 diabetes; assay: Venous occlusion plethysmography: forearm blood flow response to acetylcholine with co-infusion of L-NMMA; type: in vivo, human; conditions: 12 weeks
# Procedure: as §1, §2, §3
# [6] = CoQ10 plasma levels after treatment; type: in vivo, human; conditions: 12 weeks, 200 mg once daily each
# Procedure: as §1
# [7] = pooled groups of the 2×2 design: all patients on the agent, with or without the other agent
structure (smiles),measurement,setting,value
"COC1=C(OC)C(=O)C(C/C=C(\C)CC/C=C(\C)CC/C=C(\C)CC/C=C(\C)CC/C=C(\C)CC/C=C(\C)CC/C=C(\C)CC/C=C(\C)CC/C=C(\C)CCC=C(C)C)=C(C)C1=O [Q, coenzyme Q10]","mean change on treatment (Week 12-week 0) in sodium nitroprusside AUC percent increase in forearm blood flow ratio, factorial margin (F+ or Q+)",[1]; [7],822% [399% to
same,mean change on treatment (Week 12-week 0) in sodium nitroprusside AUC percent increase in forearm blood flow ratio,"[1]; single treatment group, 200 mg once daily each agent, SNP 1.5, 3 and 10 μg/min",50% [−641% to
same,lipid lowering effects,[2],no lipid lowering effects
same,dose previously demonstrated to be safe,[3],up to 300 mg daily
same,"mean change on treatment (Week 12-Week 0) in acetylcholine AUC percent increase in forearm blood flow ratio, factorial margin (F+ or Q+)",[4]; [7],206% [119% to
same,mean change on treatment (Week 12-Week 0) in acetylcholine AUC percent increase in forearm blood flow ratio,[4],−7% [−119%
same,mean change on treatment (Week 12-Week 0) in acetylcholine AUC percent increase in forearm blood flow ratio,[4]; listed as CoQ10,no change
same,"mean change on treatment (Week 12-Week 0) in acetylcholine percent increase in forearm blood flow ratio with co-infusion of L-NMMA, factorial margin (F+ or Q+)",[5]; [7],48% [6% to 90%]
same,mean change on treatment (Week 12-Week 0) in acetylcholine percent increase in forearm blood flow ratio with co-infusion of L-NMMA,"[5]; single treatment group, 200 mg once daily each agent",−21% [−76% to
same,"plasma levels of CoQ10 after treatment, CoQ10 alone versus combination groups",[6],did not differ
